Reference: patent publication US8809010B2, “Method for prophylactic treatment of alzheimer's disease using inhibitors of glutaminyl cyclase and glutamate cyclases” (Probiodrug AG, priority 2003, dated 2014)
Read-outs that look alike come from different tables or passages of the source. Values belong to the compound of their own block, whether it stands above or below them. Ends that are not written are not given here. Peptide text beside a SMILES is read from it. Gln(NMe) = glutamine with N-methylated side-chain amide

Tests used:
mammalian QC = mammalian QC (Bos taurus, UniProt Q28120); details: cited from earlier work
Chain of mammalian QC (Q28120 29-361): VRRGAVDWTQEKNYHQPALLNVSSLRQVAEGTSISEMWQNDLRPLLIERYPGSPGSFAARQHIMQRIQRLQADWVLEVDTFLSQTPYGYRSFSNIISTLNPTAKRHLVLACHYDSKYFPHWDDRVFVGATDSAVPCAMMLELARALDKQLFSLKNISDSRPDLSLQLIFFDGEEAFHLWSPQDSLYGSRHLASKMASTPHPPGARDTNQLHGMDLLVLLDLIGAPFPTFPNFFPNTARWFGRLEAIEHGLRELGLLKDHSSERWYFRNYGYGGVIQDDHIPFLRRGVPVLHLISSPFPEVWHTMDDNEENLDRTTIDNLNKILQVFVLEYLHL

human QC [1] = biological target: T1, human QC (Homo sapiens, UniProt Q16769); assay: Continuous spectrophotometric QC assay (glutamate dehydrogenase coupled), substrate kinetics; type: biochemical; details: for Ki* (mM): for substrate inhibition;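 on all read-outs here: initial rates read on a microplate reader at 30 °C, with enzyme activity quantified against an ammonia calibration curve under the same assay conditions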
T1 construct: The cDNA of the mature QC starting with codon 38 was fused in frame with the plasmid encoded 6× histidine tag; 6xHis; made in house; host or cells: Pichia pastoris X33 (pPICZαB, secreted); also E. coli M15 (pQE-31)
T1 sequence (Q16769 29-361): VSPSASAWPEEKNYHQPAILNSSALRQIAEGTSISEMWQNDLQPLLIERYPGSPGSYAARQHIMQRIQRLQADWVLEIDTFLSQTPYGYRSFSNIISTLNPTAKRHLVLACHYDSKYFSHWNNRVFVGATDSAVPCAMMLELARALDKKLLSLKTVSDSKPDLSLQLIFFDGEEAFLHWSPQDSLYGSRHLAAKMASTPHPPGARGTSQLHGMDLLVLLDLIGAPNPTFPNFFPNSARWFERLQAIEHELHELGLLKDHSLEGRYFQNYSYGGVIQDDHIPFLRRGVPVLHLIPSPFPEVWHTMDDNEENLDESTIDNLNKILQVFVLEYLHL
Description: The initial velocities were evaluated and the enzymatic activity was determined from a standard curve of ammonia under assay conditions. All samples were measured at 30° C., using either the [sequence]luor Plus or the Sunrise (both from TECAN) reader for microplates. Kinetic data was evaluated using GraFit software.

human QC [2] = biological target: T1, human QC; assay: QC inhibitor assay (fluorometric, H-Gln-AMC / H-Gln-βNA, pyroglutamyl aminopeptidase coupled); type: biochemical
human QC [3] = biological target: T1, human QC; assay: Qualitative substrate conversion (MALDI-TOF / fluorometric); type: biochemical; parameters: key to substrate conversion, determined qualitatively: *: determined qualitatively by MALDI-TOF experiments
Description: (§1) Matrix-assisted laser desorption/ionization mass spectrometry was carried out using the Hewlett-Packard G2025 LD-TOF System with a linear time of flight analyzer. […] Samples (5 μl) were mixed with equal volumes of the matrix solution. For matrix solution we used DHAP/DAHC, prepared by solving 30 mg 2′,6′-dihydroxyacetophenone (Aldrich) and 44 mg diammonium hydrogen citrate (Fluka) in 1 ml acetonitrile/0.1% TFA in water (1/1, v/v). A small volume (≈1 μl) of the matrix-analyte-mixture was transferred to a probe tip and immediately evaporated in a vacuum chamber (Hewlett-Packard G2024A sample prep accessory) to ensure rapid and homogeneous sample crystallization.
In order to further investigate the specificity and selectivity of the QCs, peptides were synthesized comprising either a modified N-terminal glutaminyl residue or a modified amino acid in the second position. […] Due to the cyclization of the glutaminyl residue or its analog, respectively, a mass difference of the substrate and the product of catalysis is detected. In cases of ammonia liberation of one mole per mole of substrate, the conversion was also analyzed quantitatively using the spectrophotometric assay.

human QC [4] = biological target: T1, human QC; assay: Long-term Glu1-cyclization of Aβ-derived peptides by recombinant human QC, MALDI-TOF; type: biochemical
Description: For long-term testing of Glu^1-cyclization, Aβ-derived peptides were incubated in 100 μl 0.1 M sodium acetate buffer, pH 5.2 or 0.1 M Bis-Tris buffer, pH 6.5 at 30° C. Peptides were applied in 0.5 mM [Aβ3-11a] or 0.15 mM [Aβ3-21a] concentrations, and 0.2 U QC was added all 24 hours. In case of Aβ3-21a, the assays contained 1% DMSO. At different times, samples were removed from the assay tube, peptides extracted using ZipTips (Millipore) according to the manufacturer's recommendations, mixed with matrix solution (1:1 v/v) and subsequently the mass spectra recorded. Negative controls did either contain no QC or heat deactivated enzyme.
The QC-catalyzed formation of [pGlu^3]Aβ3-11a and [pGlu^3]Aβ3-21a was investigated at pH 5.2 and 6.5, respectively. If the QC-inhibitor benzimidazole was added to the solution before starting the assay by addition of QC, substrate conversion resulting in [pGlu^3]Aβ3-11a or [pGlu^3]Aβ3-21a was suppressed (FIGS. 15E and F). If QC was boiled before addition, formation of the pGlu-peptides was negligible (FIGS. 15A and B).

human QC [5] = biological target: T1, human QC; assay: Enzyme inactivation/reactivation procedures; type: biochemical; details: for inactivation of human QC: extensive dialysis against 5 mM chelator
human QC [6] = biological target: T1, human QC; details: cited from earlier work
[7] = system: QC in porcine pituitary homogenate; assay: Formation of [pGlu3]Aβ3-11a in porcine pituitary homogenate, MALDI-TOF; type: biochemical
Description: as §1

[8] = recombinant human QC, absence of DMSO
[9] = recombinant human QC, buffer containing 1% DMSO
[10] = Human QC, 0.05M Tris-HCl, pH 8.0
[11] = Human QC, 0.05M Tris-HCl, pH 8.0, 0.5 M KCl

Compound: O=C(O)CN(CCN(CC(=O)O)CC(=O)O)CC(=O)O [EDTA]
inhibition of mammalian QC (mammalian QC): did not inhibit

kcat (human QC [1]; Human QC): 76.3 ± 0.7 s⁻¹
Compound: C[C@H](NC(=O)[C@H](C)NC(=O)[C@@H](N)CCC(N)=O)C(N)=O [H-Gln-Ala-Ala-NH2] (H-Gln-Ala-Ala-NH2)

inhibition of human QC (human QC [2]): improved binding to the active site
Compound: C=Cn1ccnc1 [1-vinylimidazole]

conversion by human QC (human QC [3]): No substrate conversion was observed | inhibition of human QC (human QC [2]): not detected
Compound: H-Gln(NMe)-Phe-Lys-Ala-Glu-NH2 ({Gln(NMe)}-FKAE-NH2)

kcat (human QC [1]; Human QC): 94 ± 1 s⁻¹ | Ki* (mM) (human QC [1]; Human QC): n.i.
Compound: NC(=O)CC[C@H](N)C(=O)N[C@@H](Cc1ccc(O)cc1)C(=O)O [H-Gln-Tyr-OH] (H-Gln-Tyr-OH)

substrate conversion, determined qualitatively (human QC [3]; Human QC, MALDI-TOF): *
Compound: [Gln^5]-substance P (5-11): QC substrate (QQFFGLM; ends and bridges not checked)

Compound: Cn1cncc1CCN [3-methyl-4-histamine]
inhibition of human QC (human QC [2]): considerable improvement of efficacy

glutamate-containing peptide as QC-substrate (human QC [4]; pH 5.2 and 6.5): can also serve as QC-substrates
Compound: EFRHDSGYE-NH2 [Aβ3-11a]

restoration of QC activity after inactivation (human QC [5]; 0.5 mM metal ion, 0.5 mM EDTA): Near-total restoration
Compound: O=S(=O)([O-])[O-].[Zn+2] [ZnSO4]

inhibition of human QC (human QC [2]): improved binding to the active site
Compound: Cn1ccnc1 [1-methylimidazole]

formation of [pGlu^3]Aβ3-11a or [pGlu^3]Aβ3-21a in presence of inhibitor (human QC [4]; 5 mM inhibitor, pH 5.2 / 6.5): suppressed
Compound: c1ccc2[nH]cnc2c1 [benzimidazole]

inactivation of human QC (human QC [5]): almost completely inactivated
Compound: c1cnc2c(c1)ccc1cccnc12 [1,10-phenanthroline]
inhibition of mammalian QC (mammalian QC): Inhibition | inhibition of human QC (human QC [6]): inhibited | formation of [pGlu^3]Aβ3-11a from [Gln^3]Aβ1-11a, consecutive catalysis by DP IV and QC ([7]; pituitary homogenate with added DPIV from porcine kidney): not formed | formation of [pGlu^3]Aβ3-11a from [Gln^3]Aβ3-11a ([7]; porcine pituitary homogenate): inhibited

conversion by human QC (human QC [3]): converted
Compound: CC(C)C[C@H](NC(=O)[C@H](CCCNC(=N)N)NC(=O)[C@H](CCCCNC(=O)[C@@H](N)CCC(N)=O)NC(=O)[C@@H](N)CCC(N)=O)C(=O)N[C@@H](C)C(N)=O [H-Gln-Lys(Gln)-Arg-Leu-Ala-NH2] (H-QK(Gln)RLA-NH2)

Km (human QC [1]; [8]): 87 ± 3 µM | kcat (s^−1) (human QC [1]; [8]): 55 ± 1^# s^−1 | Km (human QC [1]; [9]): 155 ± 4 µM | kcat (human QC [1]; [9]): 41.4 ± 0.4 s⁻¹
Compound: QFRHDSGYE-NH2 [[Gln^3]Aβ3-11a]

kcat (human QC [1]; Human QC): 69.6 ± 0.3 s⁻¹
Compound: NC(=O)CC[C@H](N)C(=O)N[C@@H](CCC(=O)O)C(=O)N1CCC[C@H]1C(N)=O [[Gln^1]-FPP] (H-Gln-Glu-Pro-NH2)

Compound: O=C(O)c1cccc(C(=O)O)n1 [dipicolinic acid]
inactivation of human QC (human QC [5]): almost completely inactivated | inhibition of human QC (human QC [6]): inhibited

conversion by human QC (human QC [3]): None of these compounds were converted
Compound: COC(=O)CC[C@H](N)C(=O)Nc1ccc2ccccc2c1 [H-Glu(OMe)-βNA]

Compound: c1c[nH]cn1 [imidazole]
inhibition of human QC (human QC [6]): inhibited

Compound: reduced 6-methylpterin
inhibition of mammalian QC (mammalian QC): Inhibition

Compound: phenylimidazole
inhibition of human QC (human QC [2]): inactive under the experimental conditions

Compound: c1ccc(Cn2ccnc2)cc1 [1-benzylimidazole]
inhibition of human QC (human QC [2]): one of the most effective QC inhibitors

kcat (human QC [1]; Human QC): 40.1 ± 0.9 s⁻¹
Compound: C[C@H](NC(=O)[C@@H](N)CCC(N)=O)C(N)=O [H-Gln-Ala-NH2] (H-Gln-Ala-NH2)

Compound: NCCCn1ccnc1 [1-aminopropyl-imidazole]
inhibition of human QC (human QC [2]): one of the less effective compounds of this group

kcat (human QC [1]; Human QC): 12.8 ± 0.5 s⁻¹ | Ki (mM) (human QC [1]; [10]): n.i. | kcat (human QC [1]; [10]): 12.8 ± 0.3 s⁻¹ | Ki (mM) (human QC [1]; [11]): n.i. | kcat (human QC [1]; [11]): 12.2 ± 0.1 s⁻¹ | Ki* (mM) (human QC [1]; Human QC): n.i.
Compound: NC(=O)CC[C@H](N)C(N)=O [H-Gln-NH2]
conversion by human QC (human QC [3]): converted glutaminamide to products readily
